Assay results taken from patent US20180201592A1, “2-AMINO-1,3,4-THIADIAZINE AND 2-AMINO-1,3,4-OXADIAZINE BASED ANTIFUNGAL AGENTS” (F2G Limited, priority 2015, published 2018).

Assays:
Details in all cases: banded MIC grade
Aspergillus fumigatus = assay: Minimum inhibitory concentration, YAG medium; format: cell-based
Procedure: (§1) Between 1 and 5 mgs of compound were accurately weighed out into a sterile Eppendorf tube. The compound was dissolved in DMSO to give a solution containing 5 mg/mL. Tubes were stored at −20° C. until required.
(§2) On the day of testing thawed solutions were vortex mixed to ensure homogeneity. 30 μL of solution was removed and added to 570 μL of sterile water in a separate sterile Eppendorf. The thoroughly mixed solution was used to prepare a series of doubling dilutions in water, in a deep well plate. Thirteen replicate plates were prepared using a Minitrak by aspirating 20 μL from each well into eleven clear polystyrene 96 well plates.
(§3) Spores of Aspergillus spp. (Aspergillus fumigatus [two strains], Aspergillus terreus [two strains], Aspergillus niger and Aspergillus flavus) were harvested from cultures grown on Sabarauds agar for 5 days, and resuspended in PBS/Tween 80 to approx 1×10^7 cfu/mL. Each organism suspension was diluted in YAG medium (1% glucose, 1% ammonium chloride and 0.5% yeast extract) to 0.5-2×10^4cfu/mL. 80 μL of an organism suspension was added to each well of the plate containing drug dilutions.
(§4) This typically produced MIC plates with a drug range 50-0.05 mg/L and organism inocula of 1-2×10^4 cfu/mL for Aspergillus spp. All plates were incubated for 24 hrs at 35° C. Growth was assessed by monitoring the optical density at 485 nm for each well. The MIC of a compound is the lowest drug concentration that inhibits growth of an organism by >70% compared with a drug free control. MICs are recorded as mg/L. In cases where the MIC of an organism is […] the MIC is repeated using a concentration range of 0.5-0.0005 mg/L.

A. fumigatus 210 = assay: Minimum inhibitory concentration, YAG medium; format: cell-based, Aspergillus fumigatus
Procedure: as §1, §2, §3, §4

A. terreus 49 = assay: Minimum inhibitory concentration, YAG medium; format: cell-based, Aspergillus terreus
Procedure: (§5) The compound was dissolved in DMSO to give a solution containing 5 mg/mL. Tubes were stored at −20° C. until required. On the day of testing thawed solutions were vortex mixed to ensure homogeneity. 30 μL of solution was removed and added to 570 μL of sterile water in a separate sterile Eppendorf. The thoroughly mixed solution was used to prepare a series of doubling dilutions in water, in a deep well plate. Thirteen replicate plates were prepared using a Minitrak by aspirating 20 μL from each well into eleven clear polystyrene 96 well plates. Spores of Aspergillus spp. […] All plates were incubated for 24 hrs at 35° C. Growth was assessed by monitoring the optical density at 485 nm for each well. […] MICs are recorded as mg/L.

Aspergillus flavus = assay: Minimum inhibitory concentration, YAG medium; format: cell-based
Procedure: as §5

Aspergillus niger = assay: Minimum inhibitory concentration, YAG medium; format: cell-based
Procedure: as §5

Aspergillus terreus = assay: Minimum inhibitory concentration, YAG medium; format: cell-based
Procedure: as §5

C. albicans = assay: Minimum inhibitory concentration, RPMI medium; format: cell-based
Procedure: as §5, with “Assays were also performed in RPMI medium (Roswell Park Memorial Media 1640). To perform MIC tests in this medium, dilutions” for “Spores”, “compounds are prepared in microtitre plates as described above.” for “Aspergillus spp.”, “24-48” for “24”, “The following organisms were tested: […]” for “MICs are recorded as mg/L.”

C. parapsilosis = assay: Minimum inhibitory concentration, RPMI medium; format: cell-based
Procedure: as §5, with “Assays were also performed in RPMI medium (Roswell Park Memorial Media 1640). To perform MIC tests in this medium, dilutions” for “Spores”, “compounds are prepared in microtitre plates as described above.” for “Aspergillus spp.”, “24-48” for “24”, “The following organisms were tested: […]” for “MICs are recorded as mg/L.”

C. tropicalis = assay: Minimum inhibitory concentration, RPMI medium; format: cell-based
Procedure: as §5, with “Assays were also performed in RPMI medium (Roswell Park Memorial Media 1640). To perform MIC tests in this medium, dilutions” for “Spores”, “compounds are prepared in microtitre plates as described above.” for “Aspergillus spp.”, “24-48” for “24”, “The following organisms were tested: […]” for “MICs are recorded as mg/L.”

Compound | MIC grade, A. FUMIGATUS, YAG media (Aspergillus fumigatus) | MIC grade, A. FUMIGATUS 210, YAG media (A. fumigatus 210) | MIC grade, A. TERREUS 49, YAG media (A. terreus 49) | MIC grade, A. FLAVUS, YAG media (Aspergillus flavus) | MIC grade, A. NIGER, YAG media (Aspergillus niger) | MIC grade, A. TERREUS, YAG media (Aspergillus terreus) | MIC grade, C. ALBICANS, RPMI media (C. albicans) | MIC grade, C. PARAPSILOSIS, RPMI media (C. parapsilosis) | MIC grade, C. TROPICALIS, RPMI media (C. tropicalis)
NC1=NN=C(c2ccccc2)CS1 [5-phenyl-6~{H}-1,3,4-thiadiazin-2-amine] | 3 (3: 0.2-1 mg/L) | 3 (3: 0.2-1 mg/L) | 3 (3: 0.2-1 mg/L) | 3 (3: 0.2-1 mg/L) | 3 (3: 0.2-1 mg/L) | 3 (3: 0.2-1 mg/L) | 1 (1: ≥20 mg/L) | 1 (1: ≥20 mg/L) | 1 (1: ≥20 mg/L)
NC1=NN=C(COc2ccccc2)CS1 | 4 (4: <0.2 mg/L) | 4 (4: <0.2 mg/L) | 3 (3: 0.2-1 mg/L) | 4 (4: <0.2 mg/L) | 3 (3: 0.2-1 mg/L) | 3 (3: 0.2-1 mg/L) | 2 (2: 5-20 mg/L) | 4 (4: <1 mg/L) | 2 (2: 5-20 mg/L)
NC1=NN=C(CCOC2CCCCC2)CS1 | 2 (2: 1-5 mg/L) | 1 (1: ≥5 mg/L) | 2 (2: 1-5 mg/L) | 2 (2: 1-5 mg/L) | 2 (2: 1-5 mg/L) | 2 (2: 1-5 mg/L) | 1 (1: ≥20 mg/L) | 2 (2: 5-20 mg/L) | 1 (1: ≥20 mg/L)
NC1=NN=C(CCCCCOCc2ccccc2)CS1 | 4 (4: <0.2 mg/L) | 4 (4: <0.2 mg/L) | 4 (4: <0.2 mg/L) | 4 (4: <0.2 mg/L) | 3 (3: 0.2-1 mg/L) | 3 (3: 0.2-1 mg/L) | 3 (3: 1-5 mg/L) | 4 (4: <1 mg/L) | 3 (3: 1-5 mg/L)
CCCCOCCC1=CNN=C(N)S1 | 2 (2: 1-5 mg/L) | 2 (2: 1-5 mg/L) | 2 (2: 1-5 mg/L) | 2 (2: 1-5 mg/L) | 1 (1: ≥5 mg/L) | 2 (2: 1-5 mg/L) | 1 (1: ≥20 mg/L) | 1 (1: ≥20 mg/L) | 1 (1: ≥20 mg/L)
COc1ccc(CCCOCCC2=NN=C(N)SC2)cc1 | 2 (2: 1-5 mg/L) | 2 (2: 1-5 mg/L) | 2 (2: 1-5 mg/L) | 2 (2: 1-5 mg/L) | 2 (2: 1-5 mg/L) | 2 (2: 1-5 mg/L) | 2 (2: 5-20 mg/L) | 3 (3: 1-5 mg/L) | 2 (2: 5-20 mg/L)
N#Cc1ccc(C2=NN=C(N)SC2)cc1 | 1 (1: ≥5 mg/L) | 2 (2: 1-5 mg/L) | 2 (2: 1-5 mg/L) | 2 (2: 1-5 mg/L) | 2 (2: 1-5 mg/L) | 2 (2: 1-5 mg/L) | 1 (1: ≥20 mg/L) | 1 (1: ≥20 mg/L) | 1 (1: ≥20 mg/L)
CCOC(=O)CC1=NN=C(N)SC1 | 2 (2: 1-5 mg/L) | 2 (2: 1-5 mg/L) | 3 (3: 0.2-1 mg/L) | 2 (2: 1-5 mg/L) | 3 (3: 0.2-1 mg/L) | 3 (3: 0.2-1 mg/L) | 3 (3: 1-5 mg/L) | 3 (3: 1-5 mg/L) | 2 (2: 5-20 mg/L)
COc1ccc(COCCC2=NN=C(N)SC2)cc1 | 3 (3: 0.2-1 mg/L) | 3 (3: 0.2-1 mg/L) | 3 (3: 0.2-1 mg/L) | 3 (3: 0.2-1 mg/L) | 3 (3: 0.2-1 mg/L) | 3 (3: 0.2-1 mg/L) | 2 (2: 5-20 mg/L) | 3 (3: 1-5 mg/L) | 2 (2: 5-20 mg/L)
NC1=NNC(c2cccc3ccccc23)=CS1 | 1 (1: ≥5 mg/L) | 1 (1: ≥5 mg/L) | 1 (1: ≥5 mg/L) | 1 (1: ≥5 mg/L) | 1 (1: ≥5 mg/L) | 1 (1: ≥5 mg/L) | 1 (1: ≥20 mg/L) | 2 (2: 5-20 mg/L) | 1 (1: ≥20 mg/L)
NC1=NN=C(CCCCCCc2ccccc2)CS1 | 4 (4: <0.2 mg/L) | 4 (4: <0.2 mg/L) | 3 (3: 0.2-1 mg/L) | 4 (4: <0.2 mg/L) | 4 (4: <0.2 mg/L) | 4 (4: <0.2 mg/L) | 2 (2: 5-20 mg/L) | 4 (4: <1 mg/L) | 3 (3: 1-5 mg/L)
NC1=NN=C(CCCCCCCOc2ccccc2)CS1 | 4 (4: <0.2 mg/L) | 3 (3: 0.2-1 mg/L) | 4 (4: <0.2 mg/L) | 4 (4: <0.2 mg/L) | 4 (4: <0.2 mg/L) | 4 (4: <0.2 mg/L) | 3 (3: 1-5 mg/L) | 4 (4: <1 mg/L) | 3 (3: 1-5 mg/L)
NC1=NN=C(CCCCc2ccccc2)CS1 | 4 (4: <0.2 mg/L) | 4 (4: <0.2 mg/L) | 4 (4: <0.2 mg/L) | 4 (4: <0.2 mg/L) | 4 (4: <0.2 mg/L) | 4 (4: <0.2 mg/L) | 2 (2: 5-20 mg/L) | 4 (4: <1 mg/L) | 2 (2: 5-20 mg/L)
NC1=NN=C(CCOc2ccc(Br)cc2)CS1 | 4 (4: <0.2 mg/L) | 4 (4: <0.2 mg/L) | 1 (1: ≥5 mg/L) | 4 (4: <0.2 mg/L) | 4 (4: <0.2 mg/L) | 3 (3: 0.2-1 mg/L) | 1 (1: ≥20 mg/L) | 3 (3: 1-5 mg/L) | 2 (2: 5-20 mg/L)
CN(CCCCCC1=NN=C(N)SC1)c1ccccc1 | 2 (2: 1-5 mg/L) | 2 (2: 1-5 mg/L) | 3 (3: 0.2-1 mg/L) | 3 (3: 0.2-1 mg/L) | 3 (3: 0.2-1 mg/L) | 3 (3: 0.2-1 mg/L) | 1 (1: ≥20 mg/L) | 2 (2: 5-20 mg/L) | 1 (1: ≥20 mg/L)
